Test in all cases: growth of human tumour cells (NCI), 48 h
The test system of assay [1] is DLD-1.
The test system of assay [2] is DMS-114.
Assay [3] concerns DMS-273.
For assay [4], the system named is HOP-18.
Assay [5] deals with KM-20L2.
Assay [6] relates to M19-MEL.
Assay [7] relates to RXF 631.
Assay [8] has as its system XF498.
Assay [9] has as its system SNB-78.

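Assay format: 96-well plates, 48-hour exposure. The concentration for 50% growth inhibition is given as GI50.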 Activity calls are given as the source filed them. No stated cut-off is given here; in the data, active = GI50 up to about 1.1 µM and inactive = higher.

In the case of `Nc1ccc(C2=Nc3ccccc3SC(c3ccccc3O)C2)cc1` (configuration not stated), the GI50 in assay [1] was 34.1 µM (inactive); in [2], 15.7 µM (inactive); in [3], 54.5 µM (inactive); in assay [4] it was > 100 µM (inactive); in assay [5], > 100 µM (inactive); in [6], 50 µM (inactive). Moreover, the GI50 in assay [7] was 68.2 µM (inactive); in assay [8], 16.3 µM (inactive).

As to `COc1ccc(/C(Cl)=C(\C=O)c2ccc(Br)cc2)cc1OC`, the GI50 is > 100 µM (inactive) in assay [1]; > 100 µM (inactive) in assay [3]; 48.4 µM (inactive) in assay [4]; > 100 µM (inactive) in [5]; > 100 µM (inactive) in assay [6]; > 62.4 µM (inactive) in [7]. Besides, the GI50 in assay [9] is 25.4 µM (inactive); in [8], 9.33 µM (inactive).

As for `C=C(CN(C)C)C(=O)c1ccc(C)cc1C`, the GI50 in [1] was 3.88 µM (inactive); in [2], 21.6 µM (inactive); in assay [3], 18.2 µM (inactive); in [4] it was 16 µM (inactive); in assay [5] it was 19.9 µM (inactive); in [6], 18.7 µM (inactive). Also, the GI50 is 20.4 µM (inactive) in assay [7], 22.9 µM (inactive) in assay [9] and 12 µM (inactive) in assay [8].

Consider `C/C(=N\NC(=S)N1CCCCCC1)c1ccccn1`, for which the GI50 was < 0.001 µM (active) in assay [1]; < 0.001 µM (active) in assay [2]; < 0.001 µM (active) in assay [3]; 0.123 µM (active) in assay [4]; < 0.001 µM (active) in assay [5]; 0.0883 µM (active) in assay [6]. Also, the GI50 in assay [7] is 0.0386 µM (active); in assay [9], 0.741 µM (active); in assay [8], 0.0014 µM (active).

On to `CCOc1ccc2nc(NC(=O)C(=O)C(C#N)CC(C)(C)C=O)sc2c1` (configuration not stated), for which the GI50 is > 100 µM (inactive) in assay [1]; 35.6 µM (inactive) in assay [2]; 18.7 µM (inactive) in assay [3]; > 100 µM (inactive) in assay [4]; > 100 µM (inactive) in [5]; 61.2 µM (inactive) in assay [6]. Moreover, the GI50 in [7], in assay [9] and in [8] was > 100 µM (inactive) each time.

`CC(C)N(C(=O)C12C3C4C1C1C4(C#N)C3C12C(=O)O)C(C)C` (configuration not stated): the GI50 in [1], in assay [2], in assay [3], in [4], in assay [5] and in assay [6] was > 100 µM (inactive) each time. Moreover, the GI50 in [7], in [9] and in assay [8] was > 100 µM (inactive) each time.

The values above are taken from ChEMBL document CHEMBL1201862, “PubChem BioAssay data set” (2004).
